# Reference: patent US20070128217A1 (priority 2003, published 2007)
# How the values were obtained:
# [1] = test system: rabbit serum obtained by immunizing a rabbit with the SARS-CoV strain Frankfurt 1; format: binding; set-up: Binding of a rabbit serum to linear peptides / Binding of a rabbit serum to looped peptides / Rabbit serum linear peptides / Rabbit serum looped peptides / Binding of a rabbit serum to linear peptides of protein N of SARS-CoV Urbani (Rabbit serum linear peptides) / Binding of a rabbit serum to looped/cyclic peptides of protein N of SARS-CoV Urbani (Rabbit serum looped peptides): unit not given here
# [2] = test system: antibodies in sera from SARS patients (sera 1a, 1b, 2, 6, 37, 62, London, SARS-yellow, SARS-green); format: binding, human; set-up: Binding of serum 6 to linear peptides of protein X1 of SARS-CoV Urbani / Binding of serum 37 to linear peptides of protein X1 of SARS-CoV Urbani / Binding of serum 6 to looped/cyclic peptide (PEPSCAN-ELISA) / Binding of serum 37 to looped/cyclic peptide (PEPSCAN-ELISA) / Binding of serum 37 to looped/cyclic peptides of protein X1 of SARS-CoV Urbani / Binding of serum 6 to linear peptides of protein X2 / Binding of serum 37 to linear peptides of protein X2 / Binding of serum 37 to looped/cyclic peptides of protein X2 of SARS-CoV Urbani / Binding of serum 6 to linear peptides of protein M of SARS-CoV Urbani / Binding of serum 37 to linear peptides of protein M of SARS-CoV Urbani / Binding of serum 6 to looped/cyclic peptides of protein M of SARS-CoV Urbani / Binding of serum 37 to looped/cyclic peptides of protein M of SARS-CoV Urbani / Binding of serum 6 to linear peptides of protein X3 of SARS-CoV Urbani / Binding of serum 37 to linear peptides of protein X3 of SARS-CoV Urbani / Binding of serum 37 to looped/cyclic peptides of protein X3 of SARS-CoV Urbani / Binding of serum 6 to linear peptides of protein X4 of SARS-CoV Urbani / Binding of serum 37 to linear peptides of protein X4 of SARS-CoV Urbani / Binding of serum 37 to looped/cyclic peptides of protein X4 of SARS-CoV Urbani / Binding of serum 6 to linear peptides of protein X5 of SARS-CoV Urbani / Binding of serum 37 to linear peptides of protein X5 of SARS-CoV Urbani / Binding of serum 37 to looped/cyclic peptides of protein X5 of SARS-CoV Urbani / Binding of serum 6 to linear peptides of protein N of SARS-CoV Urbani / Binding of serum 37 to linear peptides of protein N of SARS-CoV Urbani / Binding of serum 6 to linear peptide (PEPSCAN-ELISA) / Binding of serum 1a to looped/cyclic peptides of protein N of SARS-CoV Urbani / Binding of serum 1b to looped/cyclic peptides of protein N of SARS-CoV Urbani / Binding of serum 2 to looped/cyclic peptides of protein N of SARS-CoV Urbani / Binding of serum 6 to looped/cyclic peptides of protein N of SARS-CoV Urbani / Binding of serum 37 to looped/cyclic peptides of protein N of SARS-CoV Urbani / Binding of serum 62 to looped/cyclic peptides of protein N of SARS-CoV Urbani / Binding of serum London to looped/cyclic peptides of protein N of SARS-CoV Urbani / Binding of serum SARS-green to looped/cyclic peptides of protein N of SARS-CoV Urbani: unit not given here
# [3] = test system: control sera (pooled serum of ten healthy LUMC hospital workers; commercial negative donor pooled serum from the Dutch bloodbank); format: binding, human; set-up: Binding of Control serum LUMC to linear peptides / Binding of Control serum Blood-bank to linear peptides / Binding of Control serum LUMC to looped peptides / Binding of Control Serum Blood-Bank to Looped peptides / Binding of Control serum LUMC to linear peptides of the protein M of SARS-CoV Urbani / Binding of Control serum Blood-bank to linear peptides of the protein M of SARS-CoV Urbani / Binding of Control serum LUMC to looped peptides of the protein M of SARS-CoV Urbani / Binding of Control Serum Blood-Bank to Looped peptides of the protein M of SARS-CoV Urbani: unit not given here
sequence,measurement,setting,value
VLPFHRWHTMVQTCT,Rabbit serum linear peptides,[1],0.6
same,Rabbit serum looped peptides,[1],0.0
same,Binding of serum 1a to linear peptides of protein X5 of SARS-CoV Urbani,[2],0.8
same,Binding of serum 1a to looped/cyclic peptides of protein X5 of SARS-CoV Urbani,[2],0.7
same,Binding of serum 1b to linear peptides of protein X5 of SARS-CoV Urbani,[2],0.6
same,Binding of serum 1b to looped/cyclic peptides of protein X5 of SARS-CoV Urbani,[2],0.5
same,Binding of serum 2 to linear peptides of protein X5 of SARS-CoV Urbani,[2],0.7
same,Binding of serum 2 to looped/cyclic peptides of protein X5 of SARS-CoV Urbani,[2],0.7
same,Binding of serum 6 to linear peptides of protein X5 of SARS-CoV Urbani,[2],0.5
same,Binding of serum 6 to looped/cyclic peptides of protein X5 of SARS-CoV Urbani,[2],0.4
same,Binding of serum 37 to linear peptides of protein X5 of SARS-CoV Urbani,[2],0.7
same,Binding of serum 37 to looped/cyclic peptides of protein X5 of SARS-CoV Urbani,[2],0.5
same,Binding of serum 62 to linear peptides of protein X5 of SARS-CoV Urbani,[2],0.7
same,Binding of serum 62 to looped/cyclic peptides of protein X5 of SARS-CoV Urbani,[2],0.3
same,Binding of serum London to linear peptides of protein X5 of SARS-CoV Urbani,[2],0.8
same,Binding of serum London to looped/cyclic peptides of protein X5 of SARS-CoV Urbani,[2],0.2
same,Binding of serum SARS-green to linear peptides of protein X5 of SARS-CoV Urbani,[2],0.6
same,Binding of serum SARS-green to looped/cyclic peptides of protein X5 of SARS-CoV Urbani,[2],1.4
same,Binding of serum SARS-yellow to linear peptides of protein X5 of SARS-CoV Urbani,[2],0.4
same,Binding of serum SARS-yellow to looped/cyclic peptides of protein X5 of SARS-CoV Urbani,[2],0.3
same,Binding of Control Serum Blood-Bank to Looped peptides,[3],0.6
same,Binding of Control serum Blood-bank to linear peptides,[3],0.6
same,Binding of Control serum LUMC to linear peptides,[3],0.5
same,Binding of Control serum LUMC to looped peptides,[3],0.0
VPLRGTIVTRPLMES,Rabbit serum linear peptides,[1],0.1
same,Rabbit serum looped peptides,[1],0.6
same,Binding of serum 1a to linear peptides of protein M of SARS-CoV Urbani,[2],0.7
same,Binding of serum 1b to linear peptides of protein M of SARS-CoV Urbani,[2],0.6
same,Binding of serum 2 to linear peptides of protein M of SARS-CoV Urbani,[2],0.7
same,Binding of serum 6 to linear peptides of protein M of SARS-CoV Urbani,[2],0.4
same,Binding of serum 37 to linear peptides of protein M of SARS-CoV Urbani,[2],0.6
same,Binding of serum 62 to linear peptides of protein M of SARS-CoV Urbani,[2],0.5
same,Binding of serum London to linear peptides of protein M of SARS-CoV Urbani,[2],0.4
same,Binding of serum SARS-green to linear peptides of protein M of SARS-CoV Urbani,[2],0.5
same,Binding of serum SARS-yellow to linear peptides of protein M of SARS-CoV Urbani,[2],0.4
same,"Recognition of the peptide by sera of SARS-CoV infected individuals, and form (linear, looped/cyclic) in which it is recognized",[2],recognized in looped/cyclic form
same,Binding of Control Serum Blood-Bank to Looped peptides of the protein M of SARS-CoV Urbani,[3],0.6
same,Binding of Control serum Blood-bank to linear peptides of the protein M of SARS-CoV Urbani,[3],0.9
same,Binding of Control serum LUMC to linear peptides of the protein M of SARS-CoV Urbani,[3],0.6
same,Binding of Control serum LUMC to looped peptides of the protein M of SARS-CoV Urbani,[3],0.7
VQIHTIDGSSGVANP,Binding of a rabbit serum to linear peptides,[1],0.1
same,Binding of a rabbit serum to looped peptides,[1],0.4
same,Binding of serum 1a to linear peptides of protein X1 of SARS-CoV Urbani,[2],0.7
same,Binding of serum 1a to looped/cyclic peptides of protein X1 of SARS-CoV Urbani,[2],0.4
same,Binding of serum 1b to linear peptides of protein X1 of SARS-CoV Urbani,[2],0.5
same,Binding of serum 1b to looped/cyclic peptides of protein X1 of SARS-CoV Urbani,[2],0.4
same,Binding of serum 2 to linear peptides of protein X1 of SARS-CoV Urbani,[2],0.6
same,Binding of serum 2 to looped/cyclic peptides of protein X1 of SARS-CoV Urbani,[2],0.3
same,Binding of serum 6 to linear peptides of protein X1 of SARS-CoV Urbani,[2],0.6
same,Binding of serum 6 to looped/cyclic peptides of protein X1 of SARS-CoV Urbani,[2],0.3
same,Binding of serum 37 to linear peptides of protein X1 of SARS-CoV Urbani,[2],0.7
same,Binding of serum 37 to looped/cyclic peptides of protein X1 of SARS-CoV Urbani,[2],0.4
same,Binding of serum 62 to linear peptides of protein X1 of SARS-CoV Urbani,[2],0.6
same,Binding of serum 62 to looped/cyclic peptides of protein X1 of SARS-CoV Urbani,[2],0.5
same,Binding of serum London to linear peptides of protein X1 of SARS-CoV Urbani,[2],0.3
same,Binding of serum London to looped/cyclic peptides of protein X1 of SARS-CoV Urbani,[2],0.2
same,Binding of serum SARS-green to linear peptides of protein X1 of SARS-CoV Urbani,[2],0.2
same,Binding of serum SARS-green to looped/cyclic peptides of protein X1 of SARS-CoV Urbani,[2],0.3
same,Binding of serum SARS-yellow to linear peptides of protein X1 of SARS-CoV Urbani,[2],0.4
same,Binding of serum SARS-yellow to looped/cyclic peptides of protein X1 of SARS-CoV Urbani,[2],0.1
same,Binding of Control Serum Blood-Bank to Looped peptides,[3],0.3
same,Binding of Control serum Blood-bank to linear peptides,[3],0.5
same,Binding of Control serum LUMC to linear peptides,[3],0.5
same,Binding of Control serum LUMC to looped peptides,[3],0.4
